Test results taken from patent US9790496B2, “Microrna compounds and methods for modulating MIR-21 activity” (Regulus Therapeutics, Inc., priority 2011, dated 2017).
Where “and” joins values, the source holds several entries; their conditions need not be identical. Identical values can stand only once. Strand notation (5' to 3'): a small letter for the sugar, then the base; units joined by * are phosphorothioate-linked, units joined directly phosphodiester-linked; [ ] holds rarer units or linkages, { } end groups; capitals alone tell only the bases. e = 2'-O-(2-methoxyethyl) (MOE); f = 2'-fluoro

Columns and labels:
[1] = test system: collagen 1A1 and collagen 3A1 expression in kidney, unilateral ureteral obstruction (UUO) model; assay: UUO model of kidney fibrosis: kidney collagen 1A1 and collagen 3A1 expression by real-time PCR; assay type: in vivo, mice; details: for Collagen 1A1 (Normalized Expression), individual animal / Collagen 3A1 (Normalized Expression), individual animal: UUO, 20 mg/kg at days -3, -1, +5 (prophylactic), kidney at day 11, real-time PCR normalized to GAPDH then sham, 20 mg/kg
Experimental: Unilateral ureteral obstruction (UUO) is a well-established experimental model of renal injury leading to interstitial fibrosis, and thus is used as an experimental model that is reflective of human kidney disease. UUO is induced by surgically ligating a single ureter. As fibrosis is characterized by an increase in collagen, the presence and extent of kidney fibrosis may be determined by measuring collagen content. Both collagen 1A1 (Col 1A1) and collagen 3A1 (Col 3A1) are measured to assess collagen content. Kidney fibrosis may be visualized by staining tissue samples with picro-sirius red to detect increases in collagen content. Kidney fibrosis may also be observed by measuring the amount of hydroxyproline, which is a major component of collagen, in a sample.
The cEt-containing anti-miR-21 compounds found to be active in the luciferase assay were tested in the UUO model of kidney fibrosis. 25919 comprising 2′-MOE and 2′-fluoro modifications is known to inhibit miR-21 activity in vivo and was included as a positive control. Groups of 8 animals each were treated as follows: UUO only, UUO with PBS, or UUO with anti-miR-21 compound. Relative to the day of the UUO procedure, PBS or anti-miR-21 compound was administered at days −3, −1, and +5. Anti-miR-21 compounds were administered at a dose of 20 mg/kg. As the anti-miR compounds were administered prior to the UUO procedure, this dosing regimen is considered a prophylactic treatment. At day 11, animals were sacrificed and kidney was isolated for measurement of collagen expression. Collagen expression was measured by real-time PCR and normalized first to GAPDH and then to the sham control animals. […]

[2] = test system: miR-21; assay: miR-21 luciferase sensor assay in Hela cells; assay type: cell-based; details: Hela cells
Experimental: The compounds were assessed for miR-21 inhibitory activity in a luciferase assay. A microRNA luciferase sensor construct was engineered using pGL3-MCS2 (Promega). The construct was introduced into Hela cells to test the ability of anti-miR compounds to inhibit activity of miR-21. In this assay, miR-21 present in the Hela cells binds to its cognate site(s) in the luciferase sensor construct, and suppresses luciferase expression. When the appropriate anti-miR is introduced into the cells, it binds to miR-21 and relieves suppression of luciferase expression. Thus, in this assay anti-miRs that are effective inhibitors of miR-21 expression will cause an increase in luciferase expression.
Day 1: Hela cells (ATCC), stably transfected with a luciferase construct engineered to contain a sequence complementary of miR-21, were seeded in T-170 flasks (BD Falcon) at 3.5*10^6 cells/flask. Hela cells were grown in Dulbecco's Modified Eagle Medium with High Glucose (Invitrogen).
Day 2: Each flask of Hela cells was transfected with 0.5 ug of a phRL sensor plasmid (Promega) expressing Renilla to be used in normalization. Hela cells were transfected using 20 ul Lipofectamine 2000/flask (Invitrogen). After 4 hours of transfection, cells were washed with PBS and trypsinized. Hela cells were plated at 40 k/well in 24 well plates (BD Falcon) and left overnight.
Day 3: Hela cells were transfected with anti-miRs using Lipofectin (Invitrogen) at 2.5 ul Lipofectin/100 nM ASO/ml Opti-MEM I Reduced Serum Medium (Invitrogen) for 4 hours. After ASO transfection, Hela cells were refed with Dulbecco's Modified Eagle Medium with High Glucose (Invitrogen).
Day 4: Hela cells are passively lysed and luciferase activity measured using the Dual-Luciferase Reporter Assay System (Promega).
The luciferase assay was performed to test the ability of anti-miRs with the nucleoside patterns described herein to inhibit the activity of miR-21. Results were compared to a ‘mock’ treatment, in which cells received no anti-miR treatment. The experiment was repeated and results of two experimental replicates are shown in the following Table B, as the luciferase value normalized to beta-galactosidase activity.
The luciferase assay was performed as described herein to test the ability of anti-miRs in Table F to inhibit the activity of miR-21. Results were compared to a ‘mock’ treatment, in which cells received no anti-miR treatment. The experiment was repeated and results of two experimental replicates are shown in the following Table D, as fold change in luciferase value relative to the mock treatment.

[3] = test system: collagen 1A1 and collagen 3A1 expression in kidney, ischemia reperfusion injury (IRI) model; assay: Unilateral ischemia reperfusion injury (IRI) model: kidney collagen 1A1 and collagen 3A1 expression; assay type: in vivo, mouse; details: unilateral IRI
Experimental: (§1) A model of ischemia reperfusion injury (IRI) is created in the mouse through unilateral or bilateral clamping of kidney arteries, which leads to tubule damage, inflammation, and fibrosis. Kidney dysfunction can occur either early (<5 days) or late (>7 days) in this model, with the early time points useful to test candidate agents for the treatment of acute kidney injury, and the later time points useful to model chronic fibrosis.
(§2) Anti-miR-21 compounds were tested in the unilateral IRI model. Unilateral IRI was induced for a period of 30 minutes. Treatment groups were as follows: sham IRI procedure; IRI with PBS administered subcutaneously; IRI with anti-miR-21 compound 25070 administered intraperitoneally at a dose of 20 mg/kg; the 2′-fluoro/2′-MOE modified anti-miR-21 25919 administered intraperitoneally at a dose of 20 mg/kg; and a 2′-fluoro/2′ modified mismatch anti-miR-21 (having three mismatches to the sequence of miR-21) 25319 administered intraperitoneally at a dose of 20 mg/kg. PBS or anti-miR compound was administered on days 5, 6, and 7 following IRI, and animals were sacrificed 14 days after IRI. As anti-miR compound is administered 5 days following the injury to the kidney, or later, when fibrosis has already occurred to some extent, this treatment regimen is considered a therapeutic regimen, rather than a prophylactic regimen.
(§3) Kidney tissue was collected for analysis of collagen 1A1 and collagen 3A1 expression (shown in Table O), and collagen area fraction (shown in Table P).
(§4) A similar study was performed with the same treatment groups and additional days of treatment. In this study, treatments were administered intraperitoneally at days 5, 6, 7, 14, and 21 following the IRI procedure Animals were sacrificed on Day 27, and kidney tissue was collected for analysis of collagen 1A1 and collagen 3A1 expression, as well as collagen area fraction.
In order to assess the flexibility of administration of the anti-miR-21 compound 25070, the activity of the compound in the 14 day study above, where anti-miR-21 was administered at […] following the IRI procedure, to a different 14 day study where anti-miR-21 was administered intraperitoneally at days 3, 5, and 7 following the IRI procedure.

[4] = test system: ischemia reperfusion injury (IRI) model; assay: Unilateral IRI model: collagen area fraction of kidney tissue; assay type: in vivo, mouse
Experimental: as §1, §2, §3, §4

[5] = Ex vivo liver homogenate stability assay (HPLC-TOF MS)
[6] = test system: ischemia reperfusion injury/nephrectomy (IR/Nx) model; assay: Ischemia reperfusion injury/nephrectomy (IR/Nx) model: urinary albumin to creatinine ratio; assay type: in vivo, mouse; details: s.c. 20 mg/kg on days 2, 3, 4, 8, urine day 9, PBS control 127, nephrectomy-only 16
Source text: An ischemia reperfusion injury/nephrectomy (IR/Nx) model is created in the mouse through temporary unilateral clamping of an artery in one kidney, which leads to tubule damage, inflammation, and fibrosis, followed by removal of the second kidney at a later timepoint. In this model, the acute kidney dysfunction phase is useful to test candidate agents for the treatment of acute kidney injury (i.e. up to about the first 5 days), and the later phases of kidney dysfunction are useful to model chronic fibrosis (i.e. after about the first 5 days).
Anti-miR-21 compounds were tested in the IR/Nx model. 25109, a 6-base mismatch to miR-21, was used as a control compound ([…]; where nucleosides not followed by a subscript indicate β-deoxynucleosides; nucleosides followed by a subscript “E” indicate 2′-MOE nucleosides; nucleosides followed by a subscript “S” indicate S-cEt nucleosides; and all internucleoside linkages are phosphorothioate internucleoside linkages).
Unilateral IR was induced for a period of 30 minutes. Treatment groups were as follows: sham IR procedure; IR with PBS administered subcutaneously; IR with mismatched control 25109 administered subcutaneously at a dose of 20 mg/kg; IR with anti-miR-21 compound 25070 administered subcutaneously at a dose of 20 mg/kg; and IR with anti-miR-21 compound 25923 administered subcutaneously at a dose of 20 mg/kg. PBS or anti-miR was administered on days 2, 3, 4, and 8 following IR. On day 8, the healthy kidney was removed by nephrectomy from each animal, and animals were sacrificed on day 9. Just prior to sacrifice, urine was collected by direct bladder puncture.
Urinary albumin to creatinine ratio was measured in the urine from each mouse. […] The geometric mean of the albumin to creatinine ratio in each group of mice was 16 μgAlb/mgCr (nephrectomy-only control), 127 μgAlb/mgCr (IR/Nx, PBS control), 140 μgAlb/mgCr (IR/Nx, 25109 control), 40 μgAlb/mgCr (IR/Nx, 25070), and 31 μgAlb/mgCr (IR/Nx, 25923). Blood urea nitrogen and serum creatinine levels were similar across all IR/Nx mice, and were elevated relative to nephrectomy-only control mice (data not shown).

[7] = .16 nM oligonucleotide, mock transfection 45
[8] = .8 nM oligonucleotide, mock transfection 33
[9] = 20 mg/kg intraperitoneally on days 5, 6, 7, sacrifice 14 days after IRI, 20 mg/kg
[10] = 20 mg/kg intraperitoneally on days 5, 6, 7, sacrifice 14 days after IRI, group mean
[11] = intraperitoneally on days 5, 6, 7, 14, 21, sacrifice Day 27
[12] = 5 μM in liver homogenate (50 mg tissue per ml), 24 hours at 37° C.

UECEAFAFCFAFUFCFAFGFUFCEUEGEAFUFAFAFGFCFUEAE (eU*eC*fA*fA*fC*fA*fU*fC*fA*fG*fU*eC*eU*eG*fA*fU*fA*fA*fG*fC*eU*eA) [Compound 25919, positive control, reference compound]
Collagen 1A1 (Normalized Expression), individual animal [1]: 150.2 and 54.2 and 84.6 and 67.7 and 78.7 and 62.2 and 89.2 and 106.2 | Collagen 3A1 (Normalized Expression), individual animal [1]: 67.1 and 33.9 and 87.6 and 47.3 and 67.7 and 46.7 and 47.0 and 57.8 | luciferase value normalized to beta-galactosidase activity ([2]; 4 nM oligonucleotide, mock transfection 50): 84 | luciferase value normalized to beta-galactosidase activity [2, 7]: 40 | luciferase value normalized to beta-galactosidase activity [2, 8]: 53 | Collagen 1A1 (Normalized Expression), individual animal [3, 9]: 108.7 and 103.9 and 29.5 and 95.8 and 35.5 and 42.2 and 64.1 and 96.4 | Collagen 3A1 (Normalized Expression), individual animal [3, 9]: 87.5 and 72.3 and 14.3 and 104 .4 and 27.1 and 34.9 and 56.1 and 82.8 | Collagen 1A1 (Normalized Expression), Mean [3, 10]: 72.0 | Collagen 1A1 (Normalized Expression), individual animal [3, 11]: 75.5 and 50.4 and 49.2 and 43.2 and 41.7 and 53.6 and 44.8 and 28.0 | Collagen 3A1 (Normalized Expression), individual animal [3, 11]: 40.2 and 43.1 and 34.5 and 35.7 and 41.1 and 36.9 and 24.5 and 22.9 | Collagen Area Fraction (#), individual animal [4, 9]: 7.093 and 8.254 and 8.095 and 8.559 and 8.681 and 6.31 and 8.416 and 9.905 | Collagen Area Fraction (#), Mean [4, 10]: 8.2 | Collagen Area Fraction (#), individual animal [4, 11]: 11.882 and 9.755 and 9.506 and 12.654 and 20.319 and 11.551 and 12.224 and 14.468

AECSATCSAGTCSTGAUSAAGCSTAS (ACATCAGTCTGATAAGCTA; 2'-MOE and cEt modifications) [Compound 25923]
compound lacking the 3'-terminal nucleoside [5, 12]: about 18% | compound present as the full-length compound [5, 12]: About 68% | ex vivo (liver) N %↓ ([5]; 5 μM oligonucleotide in liver homogenate (50 mg tissue per ml), 24 hours, 37° C., decrease of full-length compound): 17% | ex vivo (liver) % N-1 ([5]; 5 μM oligonucleotide in liver homogenate, 24 hours, 37° C., compound lacking one terminal nucleoside): 13% | ex vivo (liver) % Endo ([5]; 5 μM oligonucleotide in liver homogenate, 24 hours, 37° C., endonuclease products): 2-3%

AEASATCSTGTCSTCAUSAATASAAE [Compound 25109, reference compound]
geometric mean of the urinary albumin to creatinine ratio [6]: 140 μgAlb/mgCr

TE^MeCAACSATCSAGTCSTGAUSAAGCSTAE (TCAACATCAGTCTGATAAGCTA; listed as DNA, chemistry not fully specified) [Compound 25082]
Collagen 1A1 (Normalized Expression), individual animal [1]: 122.2 and 188.3 and 102.5 and 67.6 and 40.6 and 44.1 and 73.8 and 94.7 | Collagen 3A1 (Normalized Expression), individual animal [1]: 62.9 and 78.9 and 82.2 and 43.8 and 32.6 and 34.3 and 75.8 and 62.5 | reduction in collagen expression (in words) ([1]; meta-analysis of repeated UUO studies, 20 mg/kg at days -3, -1, +5): did not consistently demonstrate a reduction in collagen expression | luciferase value normalized to beta-galactosidase activity [2, 7]: 70 | luciferase value normalized to beta-galactosidase activity [2, 8]: 89 | inhibition of miR-21 in the luciferase assay (in words) [2]: demonstrated inhibition of miR-21 in a dose-dependent manner
